Measured values reported in ChEMBL document CHEMBL1201862, “PubChem BioAssay data set” (2004).
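Values below derive from 48-hour exposures of cells grown in 96-well plates, with endpoints linearly interpolated between the two concentrations bracketing the appropriate inhibition level. GI50 marks 50% less growth.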 Calls of active or inactive are those of the source. Cut-off read from the data, not from the text of the source: active = GI50 up to about 1.1 µM and inactive = higher.

What was measured:
Experiment in all cases: NCI-60 cell line screen, 48 h
K562 = tested on: K562
HCC 2998 = tested on: HCC 2998
HOP-62 = tested on: HOP-62
SK-OV-3 = tested on: SK-OV-3
TK-10 = tested on: TK-10
ACHN = tested on: ACHN
DU-145 = tested on: DU-145
EKVX = tested on: EKVX
A549 = tested on: A549
MOLT-4 = tested on: MOLT-4
U-251 = tested on: U-251
RXF 393 = tested on: RXF 393
MDA-MB-231 = tested on: MDA-MB-231
BT-549 = tested on: BT-549
HT-29 = tested on: HT-29
CAKI-1 = tested on: CAKI-1
MDA-MB-435 = tested on: MDA-MB-435
UACC-257 = tested on: UACC-257
MDA-N = tested on: MDA-N

| SMILES | GI50 (K562) | GI50 (HCC 2998) | GI50 (HOP-62) | GI50 (SK-OV-3) | GI50 (TK-10) | GI50 (ACHN) | GI50 (DU-145) | GI50 (EKVX) | GI50 (A549) | GI50 (MOLT-4) | GI50 (U-251) | GI50 (RXF 393) | GI50 (MDA-MB-231) | GI50 (BT-549) | GI50 (HT-29) | GI50 (CAKI-1) | GI50 (MDA-MB-435) | GI50 (UACC-257) | GI50 (MDA-N) |
| --- | --- | --- | --- | --- | --- | --- | --- | --- | --- | --- | --- | --- | --- | --- | --- | --- | --- | --- | --- |
| CN(C)S(=O)(=O)Nc1nnc(S(N)(=O)=O)s1 | > 100 µM (inactive) | > 100 µM (inactive) | > 100 µM (inactive) | > 100 µM (inactive) | > 100 µM (inactive) | > 100 µM (inactive) | > 100 µM (inactive) | > 100 µM (inactive) | > 100 µM (inactive) | > 100 µM (inactive) | > 100 µM (inactive) | > 100 µM (inactive) | > 100 µM (inactive) | > 100 µM (inactive) | > 100 µM (inactive) | > 100 µM (inactive) | > 100 µM (inactive) | – | – |
| CC(=O)OC(Cn1cncn1)(Cn1cncn1)c1ccc(Cl)cc1Cl | > 100 µM (inactive) | > 100 µM (inactive) | > 100 µM (inactive) | > 100 µM (inactive) | > 100 µM (inactive) | – | > 100 µM (inactive) | > 100 µM (inactive) | > 100 µM (inactive) | > 100 µM (inactive) | > 100 µM (inactive) | > 100 µM (inactive) | > 100 µM (inactive) | > 100 µM (inactive) | > 100 µM (inactive) | > 100 µM (inactive) | > 100 µM (inactive) | > 100 µM (inactive) | – |
| COC(=O)CCc1c(Cc2ccc[nH]2)[nH]c(C(=O)OCc2ccccc2)c1C | 25.5 µM (inactive) | – | 19.5 µM (inactive) | > 100 µM (inactive) | 26 µM (inactive) | 23.1 µM (inactive) | 75.3 µM (inactive) | 29.6 µM (inactive) | 33.4 µM (inactive) | 24.9 µM (inactive) | 22.3 µM (inactive) | 20.8 µM (inactive) | 15.3 µM (inactive) | – | 20.4 µM (inactive) | 25.1 µM (inactive) | 18.3 µM (inactive) | 18.4 µM (inactive) | 18 µM (inactive) |
| N[C@@H]1c2c(Br)sc(Br)c2C(=O)[C@H]1Br | > 28.3 µM (inactive) | 31.3 µM (inactive) | 50.4 µM (inactive) | > 100 µM (inactive) | > 100 µM (inactive) | 20.6 µM (inactive) | > 60.3 µM (inactive) | 34.4 µM (inactive) | > 100 µM (inactive) | 4.69 µM (inactive) | 22.7 µM (inactive) | 22.1 µM (inactive) | 23.6 µM (inactive) | 19.1 µM (inactive) | 21.7 µM (inactive) | 27.3 µM (inactive) | 23 µM (inactive) | 18.6 µM (inactive) | – |
| CCOC(=O)c1csc(NC(=O)CN(C)C)n1 | > 100 µM (inactive) | > 100 µM (inactive) | > 100 µM (inactive) | > 100 µM (inactive) | > 100 µM (inactive) | > 100 µM (inactive) | > 100 µM (inactive) | > 100 µM (inactive) | > 100 µM (inactive) | > 100 µM (inactive) | > 100 µM (inactive) | > 100 µM (inactive) | > 100 µM (inactive) | – | > 100 µM (inactive) | > 100 µM (inactive) | > 100 µM (inactive) | > 100 µM (inactive) | > 100 µM (inactive) |
| N#CCCC1C(C#N)C2(Cl)CC1(Cl)C(Cl)=C2Cl (stereo not drawn) | > 10 µM (inactive) | > 10 µM (inactive) | > 10 µM (inactive) | > 10 µM (inactive) | > 10 µM (inactive) | > 10 µM (inactive) | > 10 µM (inactive) | > 10 µM (inactive) | > 10 µM (inactive) | > 10 µM (inactive) | > 10 µM (inactive) | > 10 µM (inactive) | > 10 µM (inactive) | – | > 10 µM (inactive) | > 10 µM (inactive) | > 10 µM (inactive) | – | > 10 µM (inactive) |
| CC[N+]1(C)CCC(O)(c2ccc(Cl)cc2)C(C(=O)c2ccc(Cl)cc2)C1 (stereo not drawn) | 4.09 µM (inactive) | 19.9 µM (inactive) | 23.8 µM (inactive) | 14.6 µM (inactive) | 17.7 µM (inactive) | 19 µM (inactive) | 18.7 µM (inactive) | > 10 µM (inactive) | – | 13.7 µM (inactive) | 24.5 µM (inactive) | 14.4 µM (inactive) | 14.9 µM (inactive) | – | 29.1 µM (inactive) | – | 19.8 µM (inactive) | 24.4 µM (inactive) | 19.1 µM (inactive) |
| CC(C)(C)OC(=O)N1Cc2cc(O)ccc2C[C@H]1C(=O)O | > 100 µM (inactive) | > 100 µM (inactive) | > 100 µM (inactive) | > 100 µM (inactive) | > 100 µM (inactive) | > 100 µM (inactive) | > 100 µM (inactive) | > 100 µM (inactive) | > 100 µM (inactive) | > 100 µM (inactive) | > 100 µM (inactive) | > 100 µM (inactive) | > 100 µM (inactive) | – | > 100 µM (inactive) | > 100 µM (inactive) | > 100 µM (inactive) | > 100 µM (inactive) | > 100 µM (inactive) |
| NC1CCC2(O)c3ccccc3C2C1 (stereo not drawn) | > 100 µM (inactive) | – | > 100 µM (inactive) | > 100 µM (inactive) | > 100 µM (inactive) | > 100 µM (inactive) | – | > 100 µM (inactive) | > 100 µM (inactive) | > 100 µM (inactive) | > 100 µM (inactive) | > 100 µM (inactive) | – | – | > 100 µM (inactive) | – | – | > 100 µM (inactive) | – |
| O=C(NC1CCCCC1)c1cc2ccccc2cc1O | 27.7 µM (inactive) | 23.5 µM (inactive) | 35.7 µM (inactive) | 49.1 µM (inactive) | 73.3 µM (inactive) | – | 43.2 µM (inactive) | 34.1 µM (inactive) | – | – | 44.2 µM (inactive) | 30.5 µM (inactive) | 61 µM (inactive) | – | 20.4 µM (inactive) | 47 µM (inactive) | 29.2 µM (inactive) | 36.6 µM (inactive) | – |
| O=C1NC(N/N=C/c2ccccc2)=N/C1=C\c1ccco1 | – | 32.1 µM (inactive) | 19.8 µM (inactive) | 54.2 µM (inactive) | 31.5 µM (inactive) | 21.9 µM (inactive) | 32.9 µM (inactive) | 36.7 µM (inactive) | 27.7 µM (inactive) | 37.1 µM (inactive) | 24.8 µM (inactive) | 25.1 µM (inactive) | 65.2 µM (inactive) | 23.7 µM (inactive) | 51.9 µM (inactive) | 37.3 µM (inactive) | 51.9 µM (inactive) | > 100 µM (inactive) | – |
| CC(=O)O[C@H]1C(=O)[C@@]2(C)[C@H]([C@H](OC(=O)c3ccccc3)[C@]3(O)C[C@H](OC(=O)[C@H](O)[C@@H](NC(=O)c4ccco4)c4ccccc4)C(C)=C1C3(C)C)[C@]1(OC(C)=O)CO[C@@H]1C[C@@H]2O | < 0.00125 µM (active) | < 0.00125 µM (active) | < 0.00125 µM (active) | < 0.00125 µM (active) | 0.022 µM (active) | 0.043 µM (active) | 0.00205 µM (active) | 0.0112 µM (active) | < 0.00125 µM (active) | 0.00286 µM (active) | < 0.00125 µM (active) | 0.00407 µM (active) | 0.013 µM (active) | – | < 0.00125 µM (active) | 0.278 µM (active) | < 0.00125 µM (active) | – | < 0.00125 µM (active) |
| Nc1ncnc2c1ncn2Cc1cccc(CCl)c1 | 21.9 µM (inactive) | – | 12.7 µM (inactive) | – | 17 µM (inactive) | 14.8 µM (inactive) | 13.8 µM (inactive) | 19.3 µM (inactive) | 21.8 µM (inactive) | 15.2 µM (inactive) | 13.8 µM (inactive) | 3.88 µM (inactive) | 16.6 µM (inactive) | 12.8 µM (inactive) | 22.8 µM (inactive) | 18.8 µM (inactive) | 19.1 µM (inactive) | 14.8 µM (inactive) | – |
| Clc1ccc2c(c1)-c1c3c(nn1-c1ccccc1)-c1ccccc1SC3O2 (stereo not drawn) | 75.3 µM (inactive) | > 100 µM (inactive) | > 100 µM (inactive) | > 100 µM (inactive) | > 100 µM (inactive) | > 100 µM (inactive) | – | > 100 µM (inactive) | > 100 µM (inactive) | > 100 µM (inactive) | > 100 µM (inactive) | > 100 µM (inactive) | – | – | > 100 µM (inactive) | – | – | > 100 µM (inactive) | – |
| O=S(=O)(O)C1CCC(O)C2NCCCC21 (stereo not drawn) | > 100 µM (inactive) | > 100 µM (inactive) | > 100 µM (inactive) | > 100 µM (inactive) | > 100 µM (inactive) | > 100 µM (inactive) | > 100 µM (inactive) | > 100 µM (inactive) | > 100 µM (inactive) | > 100 µM (inactive) | > 100 µM (inactive) | > 100 µM (inactive) | > 100 µM (inactive) | > 100 µM (inactive) | > 100 µM (inactive) | > 100 µM (inactive) | > 100 µM (inactive) | > 100 µM (inactive) | – |
| COC(=O)CCC(=O)c1ccc2c(c1)CC1(C2)Cc2ccc3c(c2C1)CCCC3=O (stereo not drawn) | 2.88 µM (inactive) | 38.3 µM (inactive) | > 53.5 µM (inactive) | 50.6 µM (inactive) | 41 µM (inactive) | 21.1 µM (inactive) | 33.7 µM (inactive) | 56.8 µM (inactive) | > 57 µM (inactive) | 0.489 µM (active) | 25 µM (inactive) | > 53 µM (inactive) | > 73.5 µM (inactive) | – | 11.2 µM (inactive) | 16.4 µM (inactive) | 3.73 µM (inactive) | 18.9 µM (inactive) | 4.85 µM (inactive) |
